According to publication PMC12841663, “Antiprotozoal Potential of Cultivated Geranium macrorrhizum Against Giardia duodenalis, Trichomonas gallinae and Leishmania infantum” (International Journal of Molecular Sciences, 2026):
In brackets after ≈: the same amount, converted by molar mass.

Tests used:
[1] = test system: G. duodenalis trophozoites; assay: Anti-Giardia activity assay (MTT viability); assay type: cell-based; conditions: pure compounds
Method: Anti-Giardia (AG) activity assays were conducted on G. duodenalis trophozoites from the ATCC® 30957 strain (assemblage A), using flat-bottom microwell plates in quadruplicate. […] Incubation was carried out for 24 h at 37 °C. EOs and pure compounds were solved in DMSO (Sigma, Madrid, Spain) (<1% final concentration). […] Trophozoites/promastigotes viability was assessed using the modified MTT colorimetric assay, as described previously in the literature, with results further validated by microscopic examination. The plate was analyzed in a spectrophotometer at a wavelength of 570 nm. The percentage of antiparasitic activity was calculated as growth inhibition, using the following formula: % AT = 100 - [(Ap - Ab) ÷ (Ac - Ab)] × 100, where Ap is the absorbance of the tested product, Ab the absorbance of the blank and Ac the absorbance of the control wells (culture without treatment). […] Metronidazole (Acros Organics, Madrid, Spain) served as a reference compound for anti-Giardia activity and Anti-Trichomonas activity and amphotericin B for anti-Leishmania activity. Data was analyzed using STATGRAPHICS Centurion XIX ([…].com) (Statgraphics Technologies, Inc., The Plains, VA, USA). The mammalian cells and trophozoites viability were tested with each compound in a dose-response experiment to calculate their relative potency (CC50 or IC50 value, respectively).

[2] = test system: L. infantum promastigotes; assay: Anti-Leishmania activity assay on promastigotes (MTT viability); assay type: cell-based; conditions: pure compounds
Method: Anti-Leishmania (AL) activity was assessed on L. infantum promastigotes (MCAN/ES/98/LLM-722), kindly provided by Dr. J.M. Requena from CBM-CSIC, as well as on L. infantum (M/CAN/ES/96/BCN150 zymodeme MON-1), strain isolated from a dog with active visceral leishmaniasis. L. infantum promastigotes (MCAN/ES/98/LLM-722) were cultured in RPMI medium supplemented with 15% FBS and 10 μg/mL of hemin (Acros Organics, Madrid, Spain), grown at 26 °C. Promastigotes in logarithmic growth were seeded in 96-well flat-bottom plates at a volume of 100 μL of culture per well and incubated for 48 h. Promastigotes for macrophage infection (M/CAN/ES/96/BCN150 zymodeme MON-1) were maintained at 26 °C in Schneider’s insect medium (Lonza, Basel, Switzerland) supplemented with 10% FBS and 100 U/mL penicillin and 100 μg/mL streptomycin (Lonza, Basel, Switzerland) (Pen-Strep). Promastigotes in the stationary phase of growth (5–6 days) were washed twice in phosphate-buffered saline at 2700× g for 10 min at 22 °C and employed for macrophage infection.
EOs and pure compounds were solved in DMSO (Sigma, Madrid, Spain) (<1% final concentration). […] Trophozoites/promastigotes viability was assessed using the modified MTT colorimetric assay, as described previously in the literature, with results further validated by microscopic examination. The plate was analyzed in a spectrophotometer at a wavelength of 570 nm. The percentage of antiparasitic activity was calculated as growth inhibition, using the following formula: % AT = 100 − [(Ap − Ab) ÷ (Ac − Ab)] × 100, where Ap is the absorbance of the tested product, Ab the absorbance of the blank and Ac the absorbance of the control wells (culture without treatment).
Pure compounds were tested using the same method, although at concentrations of 100, 75, 50, 25, 10, and 1 μg/mL. Metronidazole (Acros Organics, Madrid, Spain) served as a reference compound for anti-Giardia activity and Anti-Trichomonas activity and amphotericin B for anti-Leishmania activity.
(§1) Data was analyzed using STATGRAPHICS Centurion XIX (https://www.statgraphics.com) (Statgraphics Technologies, Inc., The Plains, VA, USA). The mammalian cells and trophozoites viability were tested with each compound in a dose–response experiment to calculate their relative potency (CC50 or IC50 value, respectively). IC50 (μg/mL) expresses the dose of EOs, extracts or pure compounds needed to produce 50% mortality of trophozoites, while CC50 (μg/mL) expresses the dose of compounds necessary to produce 50% mortality of Vero cells.

[3] = Cytotoxicity of germacrone on DH82 macrophages (MTT); assay type: cell-based, canine; conditions: dog, DH82 macrophages; 48 h treatment; MTT; R^2 98.4
Method: (§2) Canine DH82 (ATCC®-CRL-10389TM) macrophages were maintained in Dulbecco’s modified Eagle’s medium (DMEM) (Thermo Fisher Scientific, Waltham, MA, USA) supplemented with 10% heat-inactivated FBS (Thermo Fisher Scientific, Waltham, MA, USA), and Pen-Strep at 37 °C in 5% CO2.
(§3) DH82 canine macrophages (5 × 10^4 per well) were seeded in 96-well plates in DMEM and kept overnight at 37 °C and 5% CO2. After washing with PBS, germacrone was added in varying concentrations (10, 50 and 100 μg/mL). After 48 h of treatment, cell viability was determined by the MTT method using a spectrophotometer (Multiskan EX, Thermo Electron Corporation, Vantaa, Finland) at 570 nm. The results were expressed as the cytotoxic concentration of 50% of the cell population (CC50). Amphotericin B (Gibco, Thermo Fisher Scientific, Grand Island, NY, USA) at 1 μg/mL was used as the reference drug. The assays were performed in two independent experiments, each in quadruplicate.

DH82 canine macrophages = assay: as above; assay type: cell-based; conditions: at concentrations of 50 and 100 μg/mL
Method: as §2, §3

[4] = Cytotoxicity of pure compounds on Vero cells (MTT); assay type: cell-based; conditions: African green monkey
Method: African green monkey kidney cells (Vero cells) were maintained in Dulbecco’s modified Eagle’s minimal essential medium (DMEM) (Thermo Fisher Scientific, Waltham, MA, USA) supplemented with 10% FBS and 1% Pen-Strep at 37 °C under a humidified atmosphere of 5% CO2/95% air.
Cells seeded in 96-well flat-bottom microplates with 100 μL medium per well (initial densities 10^4 cells per well) were exposed for 48 h to serial dilutions (100, 75, 50, 25, 10 and 1 µg/mL) of the tested compounds in DMSO (<1% final concentration). Cell viability was analyzed by the MTT colorimetric assay method, and the purple-colored formazan precipitate was dissolved with 100 μL of DMSO [23].
as §1

For `CC(C)=C1C/C=C(\C)CC/C=C(\C)CC1=O` [Compound 2, germacrone], the IC50 [1] was 55.2 µg/mL (≈ 253 µM), the IC50 [2] was 37.5 µg/mL (≈ 172 µM) and the CC50 at 48 h [3] was 12.9 µg/mL (≈ 59.1 µM). The “effect on canine macrophages” value (DH82 canine macrophages) was “lethal” and the CC50 at 48 h [4] was ~100 µg/mL (≈ 458 µM).
